Results: ChEMBL document CHEMBL3991601, “The target landscape of clinical kinase drugs” (Science, 2017)
Calls of active or inactive are those of the source.

Experiments:
[1] = target: T1, Activin receptor type-1 (Homo sapiens, UniProt Q04771)
T1 sequence (Q04771 whole entry): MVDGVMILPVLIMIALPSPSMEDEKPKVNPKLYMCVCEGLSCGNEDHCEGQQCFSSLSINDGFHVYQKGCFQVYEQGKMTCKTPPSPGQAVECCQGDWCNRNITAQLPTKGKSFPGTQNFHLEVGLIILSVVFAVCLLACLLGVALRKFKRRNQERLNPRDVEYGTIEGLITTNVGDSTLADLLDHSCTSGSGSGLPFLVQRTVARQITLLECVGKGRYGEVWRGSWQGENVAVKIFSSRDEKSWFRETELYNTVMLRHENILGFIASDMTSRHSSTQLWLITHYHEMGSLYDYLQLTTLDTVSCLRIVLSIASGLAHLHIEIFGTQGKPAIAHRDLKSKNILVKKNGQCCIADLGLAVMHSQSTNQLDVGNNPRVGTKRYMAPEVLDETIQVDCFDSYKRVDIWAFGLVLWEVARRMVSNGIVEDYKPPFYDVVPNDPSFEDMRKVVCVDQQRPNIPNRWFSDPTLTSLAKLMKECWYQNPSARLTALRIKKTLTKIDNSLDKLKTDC

[2] = target: T2, Serine/threonine-protein kinase A-Raf (Homo sapiens, UniProt P10398)
T2 sequence (P10398 whole entry): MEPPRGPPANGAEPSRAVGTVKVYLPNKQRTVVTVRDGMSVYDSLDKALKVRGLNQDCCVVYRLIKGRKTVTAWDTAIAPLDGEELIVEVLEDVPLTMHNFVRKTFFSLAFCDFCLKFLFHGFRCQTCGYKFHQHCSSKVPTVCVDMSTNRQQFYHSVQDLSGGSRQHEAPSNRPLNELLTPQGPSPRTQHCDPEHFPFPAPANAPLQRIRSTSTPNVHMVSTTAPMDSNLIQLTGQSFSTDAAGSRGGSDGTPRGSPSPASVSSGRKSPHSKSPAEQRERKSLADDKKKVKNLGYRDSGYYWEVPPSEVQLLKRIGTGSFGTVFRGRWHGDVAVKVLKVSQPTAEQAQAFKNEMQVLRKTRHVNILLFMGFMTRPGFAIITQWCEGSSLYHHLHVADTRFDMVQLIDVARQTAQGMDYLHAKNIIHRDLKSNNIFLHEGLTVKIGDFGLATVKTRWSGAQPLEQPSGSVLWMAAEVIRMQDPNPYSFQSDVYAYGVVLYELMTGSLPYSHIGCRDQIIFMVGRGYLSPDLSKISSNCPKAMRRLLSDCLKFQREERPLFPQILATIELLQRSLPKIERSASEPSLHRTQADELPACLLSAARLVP

[3] = target: T3, Calcium/calmodulin-dependent protein kinase type IV (Homo sapiens, UniProt Q16566)
T3 sequence (Q16566 whole entry): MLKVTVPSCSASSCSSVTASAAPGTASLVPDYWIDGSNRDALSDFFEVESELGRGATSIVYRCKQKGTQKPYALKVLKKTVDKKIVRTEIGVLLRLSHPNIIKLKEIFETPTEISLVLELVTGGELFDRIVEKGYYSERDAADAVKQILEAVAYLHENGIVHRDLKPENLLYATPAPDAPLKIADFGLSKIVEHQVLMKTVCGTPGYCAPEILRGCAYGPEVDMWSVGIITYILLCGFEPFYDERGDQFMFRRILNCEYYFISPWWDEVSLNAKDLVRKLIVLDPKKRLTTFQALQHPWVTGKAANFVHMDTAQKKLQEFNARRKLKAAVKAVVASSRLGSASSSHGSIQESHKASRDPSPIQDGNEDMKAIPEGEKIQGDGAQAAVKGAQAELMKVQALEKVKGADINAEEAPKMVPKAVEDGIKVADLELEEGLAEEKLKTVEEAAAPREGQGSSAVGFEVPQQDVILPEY

[4] = target: T4, RNA cytidine acetyltransferase (Homo sapiens, UniProt Q9H0A0)
T4 sequence (Q9H0A0 whole entry): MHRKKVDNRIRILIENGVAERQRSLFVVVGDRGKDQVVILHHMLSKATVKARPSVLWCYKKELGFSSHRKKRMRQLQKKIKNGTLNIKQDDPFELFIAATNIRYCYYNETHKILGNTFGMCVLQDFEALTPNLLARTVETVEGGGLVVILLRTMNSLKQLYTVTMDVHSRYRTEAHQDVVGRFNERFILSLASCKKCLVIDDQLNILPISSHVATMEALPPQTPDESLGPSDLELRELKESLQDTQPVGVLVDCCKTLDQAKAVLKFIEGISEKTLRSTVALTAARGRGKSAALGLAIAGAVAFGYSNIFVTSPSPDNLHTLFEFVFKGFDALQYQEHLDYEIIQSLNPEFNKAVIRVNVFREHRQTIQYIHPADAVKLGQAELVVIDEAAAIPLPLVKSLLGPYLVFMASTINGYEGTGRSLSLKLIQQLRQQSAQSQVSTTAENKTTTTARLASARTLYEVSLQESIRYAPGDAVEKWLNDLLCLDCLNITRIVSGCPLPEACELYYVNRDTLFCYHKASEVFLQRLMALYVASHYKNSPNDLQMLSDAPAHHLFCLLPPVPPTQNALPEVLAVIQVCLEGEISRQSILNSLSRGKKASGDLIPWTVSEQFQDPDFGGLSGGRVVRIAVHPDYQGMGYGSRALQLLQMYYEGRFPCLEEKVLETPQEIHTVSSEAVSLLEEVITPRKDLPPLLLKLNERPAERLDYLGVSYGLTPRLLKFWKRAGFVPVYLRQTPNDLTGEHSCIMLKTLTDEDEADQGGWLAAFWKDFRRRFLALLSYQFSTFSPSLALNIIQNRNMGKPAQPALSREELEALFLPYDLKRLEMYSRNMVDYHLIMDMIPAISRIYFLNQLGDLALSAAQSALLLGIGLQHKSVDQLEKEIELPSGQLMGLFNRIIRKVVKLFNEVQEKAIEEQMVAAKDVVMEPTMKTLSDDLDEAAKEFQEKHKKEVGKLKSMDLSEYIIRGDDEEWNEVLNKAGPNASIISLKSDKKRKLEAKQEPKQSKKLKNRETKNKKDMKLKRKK

[5] = target: DNA topoisomerase 2-beta (Homo sapiens, UniProt Q02880)
Sequence of DNA topoisomerase 2-beta (Q02880 whole entry): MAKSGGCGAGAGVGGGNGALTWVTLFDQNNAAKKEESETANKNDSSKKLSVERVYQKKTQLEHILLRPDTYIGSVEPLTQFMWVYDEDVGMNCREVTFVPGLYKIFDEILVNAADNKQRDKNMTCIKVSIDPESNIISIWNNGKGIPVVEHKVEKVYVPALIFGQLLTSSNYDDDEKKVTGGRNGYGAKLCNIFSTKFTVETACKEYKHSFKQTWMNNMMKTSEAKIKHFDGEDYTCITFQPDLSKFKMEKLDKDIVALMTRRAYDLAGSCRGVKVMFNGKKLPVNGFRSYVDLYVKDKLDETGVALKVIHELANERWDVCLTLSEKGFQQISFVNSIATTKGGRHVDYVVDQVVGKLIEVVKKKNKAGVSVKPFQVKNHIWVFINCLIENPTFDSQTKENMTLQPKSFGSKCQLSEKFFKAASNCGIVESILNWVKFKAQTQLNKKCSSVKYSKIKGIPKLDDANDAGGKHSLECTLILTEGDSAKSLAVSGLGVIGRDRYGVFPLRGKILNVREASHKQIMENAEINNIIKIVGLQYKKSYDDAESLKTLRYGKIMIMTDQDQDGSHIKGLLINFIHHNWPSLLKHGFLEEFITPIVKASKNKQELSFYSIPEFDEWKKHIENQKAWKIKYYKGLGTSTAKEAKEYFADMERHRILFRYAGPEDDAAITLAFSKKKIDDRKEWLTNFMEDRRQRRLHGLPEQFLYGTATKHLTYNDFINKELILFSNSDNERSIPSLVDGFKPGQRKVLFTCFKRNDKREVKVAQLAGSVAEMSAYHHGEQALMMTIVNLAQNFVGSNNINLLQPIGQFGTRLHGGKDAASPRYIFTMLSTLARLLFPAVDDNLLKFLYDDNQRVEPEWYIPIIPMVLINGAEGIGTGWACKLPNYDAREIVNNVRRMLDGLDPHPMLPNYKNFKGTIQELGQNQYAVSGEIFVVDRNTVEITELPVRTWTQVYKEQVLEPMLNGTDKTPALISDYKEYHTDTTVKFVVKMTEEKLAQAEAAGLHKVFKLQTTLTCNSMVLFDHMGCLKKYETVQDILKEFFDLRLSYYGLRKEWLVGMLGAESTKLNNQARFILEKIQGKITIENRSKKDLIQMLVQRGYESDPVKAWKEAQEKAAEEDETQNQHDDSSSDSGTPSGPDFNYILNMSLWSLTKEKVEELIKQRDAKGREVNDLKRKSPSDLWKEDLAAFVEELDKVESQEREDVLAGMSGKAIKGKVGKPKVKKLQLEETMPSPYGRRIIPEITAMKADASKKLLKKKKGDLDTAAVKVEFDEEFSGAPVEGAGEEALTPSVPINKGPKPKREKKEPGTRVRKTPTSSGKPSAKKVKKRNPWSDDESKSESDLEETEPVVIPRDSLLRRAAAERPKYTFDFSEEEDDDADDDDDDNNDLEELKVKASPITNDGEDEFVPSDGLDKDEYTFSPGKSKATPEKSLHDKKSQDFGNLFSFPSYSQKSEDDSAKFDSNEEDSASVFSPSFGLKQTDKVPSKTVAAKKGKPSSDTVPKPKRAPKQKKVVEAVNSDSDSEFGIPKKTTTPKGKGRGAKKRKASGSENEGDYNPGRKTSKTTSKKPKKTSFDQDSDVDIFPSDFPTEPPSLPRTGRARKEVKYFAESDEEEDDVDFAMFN

[6] = target: Elongation factor Tu, mitochondrial (Homo sapiens, UniProt P49411)
[7] = target: Calcium/calmodulin-dependent protein kinase type II subunit gamma (Homo sapiens, UniProt Q13555)
Sequence of Calcium/calmodulin-dependent protein kinase type II subunit gamma (Q13555 whole entry): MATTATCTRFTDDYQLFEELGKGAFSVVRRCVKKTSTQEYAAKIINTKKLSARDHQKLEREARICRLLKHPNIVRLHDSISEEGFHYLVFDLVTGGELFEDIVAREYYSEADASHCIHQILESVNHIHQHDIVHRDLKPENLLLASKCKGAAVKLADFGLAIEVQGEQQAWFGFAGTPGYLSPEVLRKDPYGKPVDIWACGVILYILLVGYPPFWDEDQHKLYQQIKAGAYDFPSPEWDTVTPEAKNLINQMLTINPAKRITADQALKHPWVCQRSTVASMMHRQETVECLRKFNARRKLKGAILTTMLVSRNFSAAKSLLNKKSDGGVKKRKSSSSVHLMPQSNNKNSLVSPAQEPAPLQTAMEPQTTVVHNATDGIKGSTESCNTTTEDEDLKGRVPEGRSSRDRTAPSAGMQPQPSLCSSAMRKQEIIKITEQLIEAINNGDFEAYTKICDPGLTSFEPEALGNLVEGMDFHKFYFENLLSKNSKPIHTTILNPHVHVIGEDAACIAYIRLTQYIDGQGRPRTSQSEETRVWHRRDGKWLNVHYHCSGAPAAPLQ

[8] = target: cAMP-dependent protein kinase catalytic subunit alpha (Homo sapiens, UniProt P17612)
[9] = target: STE20-like serine/threonine-protein kinase (Homo sapiens, UniProt Q9H2G2)
Sequence of STE20-like serine/threonine-protein kinase (Q9H2G2 whole entry): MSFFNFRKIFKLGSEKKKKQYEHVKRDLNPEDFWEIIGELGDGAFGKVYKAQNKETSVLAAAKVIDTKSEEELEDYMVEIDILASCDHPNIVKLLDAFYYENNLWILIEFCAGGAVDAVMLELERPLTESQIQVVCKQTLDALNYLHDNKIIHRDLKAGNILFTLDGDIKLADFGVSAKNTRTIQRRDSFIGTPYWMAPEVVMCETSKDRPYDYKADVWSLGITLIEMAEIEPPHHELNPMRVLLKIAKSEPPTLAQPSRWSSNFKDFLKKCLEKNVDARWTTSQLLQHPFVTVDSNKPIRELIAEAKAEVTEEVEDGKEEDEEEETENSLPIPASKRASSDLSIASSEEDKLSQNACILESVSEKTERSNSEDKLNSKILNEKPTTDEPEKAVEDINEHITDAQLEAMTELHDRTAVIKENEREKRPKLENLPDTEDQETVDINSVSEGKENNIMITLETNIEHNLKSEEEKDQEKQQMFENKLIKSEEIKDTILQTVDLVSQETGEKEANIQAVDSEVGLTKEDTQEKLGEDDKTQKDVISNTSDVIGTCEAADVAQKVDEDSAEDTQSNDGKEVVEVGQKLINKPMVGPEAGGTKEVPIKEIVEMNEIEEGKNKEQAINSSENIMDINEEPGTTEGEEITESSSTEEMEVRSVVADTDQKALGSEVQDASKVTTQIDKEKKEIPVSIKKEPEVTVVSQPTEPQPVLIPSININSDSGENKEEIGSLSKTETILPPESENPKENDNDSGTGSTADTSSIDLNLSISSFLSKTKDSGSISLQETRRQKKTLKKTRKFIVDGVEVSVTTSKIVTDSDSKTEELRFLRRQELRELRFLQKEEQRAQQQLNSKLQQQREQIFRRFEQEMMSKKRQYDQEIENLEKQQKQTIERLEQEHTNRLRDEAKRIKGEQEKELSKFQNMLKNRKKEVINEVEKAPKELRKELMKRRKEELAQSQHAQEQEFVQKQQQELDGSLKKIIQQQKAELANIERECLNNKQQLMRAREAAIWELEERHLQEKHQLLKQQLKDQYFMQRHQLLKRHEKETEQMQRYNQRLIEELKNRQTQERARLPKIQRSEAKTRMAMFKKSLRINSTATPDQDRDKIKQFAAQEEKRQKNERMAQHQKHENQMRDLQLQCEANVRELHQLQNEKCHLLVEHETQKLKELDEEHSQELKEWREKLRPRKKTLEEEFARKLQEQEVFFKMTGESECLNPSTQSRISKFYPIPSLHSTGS

[10] = target: Dual specificity tyrosine-phosphorylation-regulated kinase 1A (Homo sapiens, UniProt Q13627)
Also: in the data inactive means no Kd found up to 30 µM.

| Structure (SMILES) | Kd [1] | Kd [2] | Kd [3] | Kd [4] | Kd [5] | Kd [6] | Kd [7] | Kd [8] | Kd [9] | Kd [10] |
| --- | --- | --- | --- | --- | --- | --- | --- | --- | --- | --- |
| C[C@]1(O)C[C@@H](c2nc(-c3ccc4ccc(-c5ccccc5)nc4c3)c3c(N)nccn32)C1 [LINSITINIB] | > 30 µM (inactive) | > 30 µM (inactive) | > 30 µM (inactive) | > 30 µM (inactive) | > 30 µM (inactive) | > 30 µM (inactive) |  |  |  |  |
| O=C(O)c1ccc2c(c1)nc(Nc1cccc(Cl)c1)c1ccncc12 [SILMITASERTIB] | > 30 µM (inactive) | > 30 µM (inactive) | > 30 µM (inactive) | > 30 µM (inactive) | > 30 µM (inactive) | > 30 µM (inactive) | > 30 µM (inactive) | > 30 µM (inactive) | 0.22 µM (active) |  |
| CN(c1ncccc1CNc1nc(Nc2ccc3c(c2)CC(=O)N3)ncc1C(F)(F)F)S(C)(=O)=O [PF-00562271] |  | > 30 µM (inactive) | > 30 µM (inactive) | > 30 µM (inactive) | > 30 µM (inactive) | > 30 µM (inactive) |  | > 30 µM (inactive) |  |  |
| Cn1c(=O)n(-c2ccc(C(C)(C)C#N)cc2)c2c3cc(-c4cnc5ccccc5c4)ccc3ncc21 [DACTOLISIB] | > 30 µM (inactive) | > 30 µM (inactive) | > 30 µM (inactive) | > 30 µM (inactive) | > 30 µM (inactive) | > 30 µM (inactive) | > 30 µM (inactive) |  | > 30 µM (inactive) |  |
| Cn1cnc2c(F)c(Nc3ccc(Br)cc3Cl)c(C(=O)NOCCO)cc21 [SELUMETINIB] |  | > 30 µM (inactive) |  | > 30 µM (inactive) | > 30 µM (inactive) | > 30 µM (inactive) |  |  |  |  |
| O=S(=O)(c1cccc2cnccc12)N1CCCNCC1 [FASUDIL] | > 30 µM (inactive) | > 30 µM (inactive) | > 30 µM (inactive) | > 30 µM (inactive) | > 30 µM (inactive) | > 30 µM (inactive) | > 30 µM (inactive) |  |  | > 30 µM (inactive) |
| COc1cc2c(N3CCN(C(=O)Nc4ccc(OC(C)C)cc4)CC3)ncnc2cc1OCCCN1CCCCC1 [TANDUTINIB] |  | > 30 µM (inactive) |  | > 30 µM (inactive) | > 30 µM (inactive) | > 30 µM (inactive) |  |  |  |  |
| COc1cc2c(Oc3ccc4[nH]c(C)cc4c3F)ncnc2cc1OCCCN1CCCC1 [CEDIRANIB] |  | > 30 µM (inactive) |  | > 30 µM (inactive) | > 30 µM (inactive) | > 30 µM (inactive) |  |  |  |  |
| CC(C)(O)CC(=O)NCCn1ccc2ncnc(Nc3ccc(Oc4cccc(C(F)(F)F)c4)c(Cl)c3)c21 [TAK-285] | > 30 µM (inactive) | > 30 µM (inactive) | > 30 µM (inactive) | > 30 µM (inactive) | > 30 µM (inactive) | > 30 µM (inactive) | > 30 µM (inactive) | > 30 µM (inactive) |  | > 30 µM (inactive) |
| c1cc(OCCN2CCCCC2)cc(-c2n[nH]c3ccc(-c4nc[nH]n4)cc23)c1 [CC-401] | > 30 µM (inactive) | > 30 µM (inactive) | > 30 µM (inactive) | > 30 µM (inactive) | > 30 µM (inactive) | > 30 µM (inactive) | > 30 µM (inactive) | > 30 µM (inactive) | > 30 µM (inactive) |  |
| CC1(C)CNc2cc(NC(=O)c3cccnc3NCc3ccncc3)ccc21 [MOTESANIB] |  | > 30 µM (inactive) |  | > 30 µM (inactive) | > 30 µM (inactive) | > 30 µM (inactive) |  |  | > 30 µM (inactive) |  |
| CN(C)C/C=C/C(=O)Nc1cc2c(Nc3ccc(F)c(Cl)c3)ncnc2cc1O[C@H]1CCOC1 [AFATINIB] |  | > 30 µM (inactive) |  | > 30 µM (inactive) | > 30 µM (inactive) | > 30 µM (inactive) |  |  |  |  |
| COCCN1CCN(Cc2ccc(-c3n[nH]c4c3C(=O)c3c(NC(=O)NN5CCOCC5)cccc3-4)cc2)CC1 [RGB-286638] | > 30 µM (inactive) | > 30 µM (inactive) | > 30 µM (inactive) | > 30 µM (inactive) | > 30 µM (inactive) | > 30 µM (inactive) | > 30 µM (inactive) | > 30 µM (inactive) | > 30 µM (inactive) |  |
| C[C@@]1(C(=O)Nc2ccc(F)nc2)CCCN1c1nc(Nc2cc(C3CC3)n[nH]2)c2cccn2n1 [BMS-754807] |  | > 30 µM (inactive) |  | > 30 µM (inactive) | > 30 µM (inactive) | > 30 µM (inactive) |  |  |  |  |
| CCN1CCN(Cc2ccc(Nc3ncc(F)c(-c4cc(F)c5nc(C)n(C(C)C)c5c4)n3)nc2)CC1 [ABEMACICLIB] | > 30 µM (inactive) | > 30 µM (inactive) | > 30 µM (inactive) | > 30 µM (inactive) | > 30 µM (inactive) | > 30 µM (inactive) | 0.018 µM (active) | > 30 µM (inactive) | > 30 µM (inactive) |  |
| NC[C@@](O)(c1ccc(Cl)cc1)c1ccc(-c2cn[nH]c2)cc1 [AT-13148] | > 30 µM (inactive) |  | > 30 µM (inactive) | > 30 µM (inactive) | > 30 µM (inactive) | > 30 µM (inactive) | > 30 µM (inactive) | 0.015 µM (active) | > 30 µM (inactive) |  |
| N#CCNC(=O)c1ccc(-c2ccnc(Nc3ccc(N4CCOCC4)cc3)n2)cc1 [MOMELOTINIB] | > 30 µM (inactive) | > 30 µM (inactive) | > 30 µM (inactive) | > 30 µM (inactive) | > 30 µM (inactive) | > 30 µM (inactive) |  | > 30 µM (inactive) |  | > 30 µM (inactive) |
| CCN(CCCOc1ccc2c(Nc3cc(CC(=O)Nc4cccc(F)c4)n[nH]3)ncnc2c1)CCOP(=O)(O)O [BARASERTIB] |  |  | > 30 µM (inactive) | > 30 µM (inactive) | > 30 µM (inactive) | > 30 µM (inactive) | > 30 µM (inactive) |  | > 30 µM (inactive) |  |
